Organism: Rattus norvegicus
Experiment: DrugMatrix - Regimen: Daily Repeat
Type: toxicity, organism-based, Sprague-Dawley
Parameters: regimen Daily Repeat, gender Male, age 6-8 weeks
Details: in vivo, po, 20 mg/kg, route oral GAVAGE, dose level Low, vehicle .5 % CMC; for ABSOLUTE BASOPHIL / ABSOLUTE EOSINOPHIL / ABSOLUTE LYMPHOCYTE / ABSOLUTE MONOCYTE / ABSOLUTE SEGMENTED NEUTROPHIL / BASOPHIL / EOSINOPHIL / ERYTHROCYTE COUNT / HEMATOCRIT / HEMOGLOBIN / LEUKOCYTE COUNT / LYMPHOCYTE / MEAN CORPUSCULAR HEMOGLOBIN / MEAN CORPUSCULAR HEMOGLOBIN CONCENTRATION / MEAN CORPUSCULAR VOLUME / MONOCYTE / NEUTROPHIL / NUCLEATED RED BLOOD CELLS / PLATELET COUNT: tissue Blood; for ALANINE AMINOTRANSFERASE / ALKALINE PHOSPHATASE / ASPARTATE AMINOTRANSFERASE / BLOOD UREA NITROGEN / CARBON DIOXIDE / CHLORIDE / CHOLESTEROL / CREATINE PHOSPHOKINASE / CREATININE / GLUCOSE / LACTATE DEHYDROGENASE / LIPASE / PHOSPHORUS / POTASSIUM / SODIUM / TOTAL BILIRUBIN / TOTAL PROTEIN / URIC ACID: tissue Plasma

For `O=C1CC2(CCCC2)CC(=O)N1CCCCN1CCN(c2ncccn2)CC1` [BUSPIRONE], the “ABSOLUTE BASOPHIL” value (72 h, time 3 day) was 0 CELLS/uL, the “ABSOLUTE EOSINOPHIL” value (72 h, time 3 day) was 51 CELLS/uL and the “ABSOLUTE LYMPHOCYTE” value (72 h, time 3 day) was 11615 CELLS/uL. For the same compound, the “ABSOLUTE MONOCYTE” value (72 h, time 3 day) was 151.33 CELLS/uL, the “ABSOLUTE SEGMENTED NEUTROPHIL” value (72 h, time 3 day) was 1416 CELLS/uL and the BASOPHIL (72 h, time 3 day) was 0%. The EOSINOPHIL (72 h, time 3 day) was 0.33%, the “ERYTHROCYTE COUNT” value (72 h, time 3 day) was 5.69 x10E6/uL and the HEMATOCRIT (72 h, time 3 day) was 36.17%. For the same compound, the HEMOGLOBIN (72 h, time 3 day) was 14.1 G/DL, the “LEUKOCYTE COUNT” value (72 h, time 3 day) was 13.23 x10E3/uL and the LYMPHOCYTE (72 h, time 3 day) was 87.67%. The “MEAN CORPUSCULAR HEMOGLOBIN” value (72 h, time 3 day) was 24.73 pg, the “MEAN CORPUSCULAR HEMOGLOBIN CONCENTRATION” value (72 h, time 3 day) was 39 G/DL and the “MEAN CORPUSCULAR VOLUME” value (72 h, time 3 day) was 63.57 fL. For the same compound, the MONOCYTE (72 h, time 3 day) was 1%, the NEUTROPHIL (72 h, time 3 day) was 11% and the “NUCLEATED RED BLOOD CELLS” value (72 h, time 3 day) was 0.33 /100WBC. For the same compound, the “PLATELET COUNT” value (72 h, time 3 day) was 1072.33 x10E3/uL, the “ALANINE AMINOTRANSFERASE” value (72 h, time 3 day) was 59.33 u/L and the “ALKALINE PHOSPHATASE” value (72 h, time 3 day) was 480 u/L. The “ASPARTATE AMINOTRANSFERASE” value (72 h, time 3 day) was 97 u/L, the “BLOOD UREA NITROGEN” value (72 h, time 3 day) was 15 mg/dL and the “CARBON DIOXIDE” value (72 h, time 3 day) was 23 mmol/L. The CHLORIDE (72 h, time 3 day) was 102 MEQ/L, the CHOLESTEROL (72 h, time 3 day) was 82.33 mg/dL and the “CREATINE PHOSPHOKINASE” value (72 h, time 3 day) was 412 u/L. For the same compound, the CREATININE (72 h, time 3 day) was 0.23 mg/dL, the GLUCOSE (72 h, time 3 day) was 167 mg/dL and the “LACTATE DEHYDROGENASE” value (72 h, time 3 day) was 304.33 u/L. The LIPASE (72 h, time 3 day) was 9 u/L, the PHOSPHORUS (72 h, time 3 day) was 13.47 mg/dL and the POTASSIUM (72 h, time 3 day) was 6.53 MEQ/L. The SODIUM (72 h, time 3 day) was 146.87 MEQ/L, the “TOTAL BILIRUBIN” value (72 h, time 3 day) was 0.2 mg/dL and the “TOTAL PROTEIN” value (72 h, time 3 day) was 6 G/DL. For the same compound, the “URIC ACID” value (72 h, time 3 day) was 1.9 mg/dL, the “ABSOLUTE BASOPHIL” value (120 h, time 5 day) was 0 CELLS/uL and the “ABSOLUTE EOSINOPHIL” value (120 h, time 5 day) was 106.67 CELLS/uL. The “ABSOLUTE LYMPHOCYTE” value (120 h, time 5 day) was 13027.67 CELLS/uL, the “ABSOLUTE MONOCYTE” value (120 h, time 5 day) was 125.67 CELLS/uL and the “ABSOLUTE SEGMENTED NEUTROPHIL” value (120 h, time 5 day) was 973.33 CELLS/uL. The BASOPHIL (120 h, time 5 day) was 0%, the EOSINOPHIL (120 h, time 5 day) was 0.67% and the “ERYTHROCYTE COUNT” value (120 h, time 5 day) was 5.35 x10E6/uL. For the same compound, the HEMATOCRIT (120 h, time 5 day) was 34.23%, the HEMOGLOBIN (120 h, time 5 day) was 13.57 G/DL and the “LEUKOCYTE COUNT” value (120 h, time 5 day) was 14.23 x10E3/uL. The LYMPHOCYTE (120 h, time 5 day) was 91.67%, the “MEAN CORPUSCULAR HEMOGLOBIN” value (120 h, time 5 day) was 25.4 pg and the “MEAN CORPUSCULAR HEMOGLOBIN CONCENTRATION” value (120 h, time 5 day) was 39.67 G/DL. For the same compound, the “MEAN CORPUSCULAR VOLUME” value (120 h, time 5 day) was 64.03 fL, the MONOCYTE (120 h, time 5 day) was 1% and the NEUTROPHIL (120 h, time 5 day) was 6.67%. The “NUCLEATED RED BLOOD CELLS” value (120 h, time 5 day) was 0 /100WBC, the “PLATELET COUNT” value (120 h, time 5 day) was 1461 x10E3/uL and the “ALANINE AMINOTRANSFERASE” value (120 h, time 5 day) was 42.33 u/L. The “ALKALINE PHOSPHATASE” value (120 h, time 5 day) was 354 u/L, the “ASPARTATE AMINOTRANSFERASE” value (120 h, time 5 day) was 77 u/L and the “BLOOD UREA NITROGEN” value (120 h, time 5 day) was 14.67 mg/dL. For the same compound, the “CARBON DIOXIDE” value (120 h, time 5 day) was 24.33 mmol/L, the CHLORIDE (120 h, time 5 day) was 102.33 MEQ/L and the CHOLESTEROL (120 h, time 5 day) was 67 mg/dL. The “CREATINE PHOSPHOKINASE” value (120 h, time 5 day) was 241.33 u/L, the CREATININE (120 h, time 5 day) was 0.14 mg/dL and the GLUCOSE (120 h, time 5 day) was 154 mg/dL. For the same compound, the “LACTATE DEHYDROGENASE” value (120 h, time 5 day) was 200.67 u/L, the LIPASE (120 h, time 5 day) was 8.33 u/L and the PHOSPHORUS (120 h, time 5 day) was 14.3 mg/dL. The POTASSIUM (120 h, time 5 day) was 7.16 MEQ/L, the SODIUM (120 h, time 5 day) was 144.93 MEQ/L and the “TOTAL BILIRUBIN” value (120 h, time 5 day) was 0.23 mg/dL. The “TOTAL PROTEIN” value (120 h, time 5 day) was 5.63 G/DL and the “URIC ACID” value (120 h, time 5 day) was 1.97 mg/dL.
